# Measured values as given in patent US20060216718A1, “Method and system for estimating gene expression data” (priority 2005, published 2006).
# Test system: gene expression
# Assay: Differential gene expression by microarray, linear multi-factor model (FIG. 3)
# Format: in vivo, rats
# Conditions: in both males and females, relative to baseline treatment combination (males who received corn oil)
# Experimental: Returning to FIG. 1, the gene expression data 14 thus acquired and, typically, background-corrected, transformed, normalized, and/or otherwise conditioned, is analyzed at step 16 without aggregating or summarizing the readings of the multiple probes from each gene, and with simultaneous assessment of the effects of all the experimental factors. For example, a linear, multi-factor model is used in one embodiment to achieve this. The linear, multi-factor model explicitly accounts for differences in expression between genes, between probes from the same gene, and between the effects of experimental factors (which in one embodiment are gender of the experimental animals, and chemical substance they have been exposed to). The effects of the experimental factors on gene expression are estimated simultaneously, rather than one-at-a-time. In this way, the analysis corresponds to the experimental design, where the factor levels are varied together and simultaneously, rather than one at a time, this enabling the assessment of possible, non-linear interactions between experimental factors. In one example, the linear model is of the form Yijnk=γn+τkn+σln+(τσ)kln+επjn+εijkln […]
smiles,measurement,value
Clc1cc2c(cc1Cl)Oc1cc(Cl)c(Cl)cc1O2 [TCDD],differential gene expression (fold increase) of the genes denoted by reference number 40,about 40 fold
